Source: patent US6949648B2, “Condensed pyrazole derivatives, process for producing the same and use thereof” (Takeda Pharmaceutical Company Limited, priority 2000, dated 2005)
Where a name gives a salt, the structure may show the parent alone.

Question: For `CCOc1cccc(-n2nc(C)c3c(=O)c4c(C)cccc4[nH]c32)n1` [Example 2-122, 3,5-Dimethyl-1-(6-ethoxy-2-pyridinyl)-1,9-dihydro-4H-pyrazolo[3,4-b]quinolin-4-one], which melting point is on record?
Answer: 213 to 215 °C

Question: With `Cc1cc(C)nc(-n2nc(C)c3c(Cl)c4ccccc4nc32)n1` [Example 2-147, 4-Chloro-1-(4,6-dimethyl-2-pyrimidinyl)-3-methyl-1H-pyrazolo[3,4-b]quinoline] as the compound, how does the melting point read?
Answer: 191 to 192 °C

Question: For `CCc1nn(-c2ccccn2)c2[nH]c3cc(F)c(F)cc3c(=O)c12` [Example 2-201, 3-Ethyl-6,7-difluoro-1-(2-pyridinyl)-1,9-dihydro-4H-pyrazolo[3,4-b]quinolin-4-one], which melting point is on record?
Answer: 247 to 248 °C

Question: With `COC(=O)c1ccc2c(Cl)c3c(C)nn(-c4ccccn4)c3nc2c1` [Example 2-66, Methyl 4-chloro-3-methyl-1-(2-pyridinyl)-1H-pyrazolo[3,4-b]quinoline-7-carboxylate] as the compound, how does the melting point read?
Answer: 239 to 240 °C

Question: With `CCCCNc1c2ccccc2nc2c1c(C)nn2-c1ccccn1` [Example 2-7, N-Butyl-N-[3-methyl-1-(2-pyridinyl)-1H-pyrazolo[3,4-b]quinolin-4-yl]amine] as the compound, how does the melting point read?
Answer: 97 to 99 °C

Question: For `Cc1nn(-c2ccccn2)c2nc3ccc(F)cc3c(Cl)c12` [Example 2-80, 4-Chloro-6-fluoro-3-methyl-1-(2-pyridinyl)-1H-pyrazolo[3,4-b]quinoline], which melting point is on record?
Answer: 185 to 187 °C

Question: Which melting point does the source give for `Cc1nn(-c2ccccn2)c2nc3ccccc3c(C#N)c12` [Example 2-107, 3-Methyl-1-(2-pyridinyl)-1H-pyrazolo[3,4-b]quinoline-4-carbonitrile] here?
Answer: 210 to 211 °C

Question: Which melting point does the source give for `CCOC(=O)c1cnc2c(cnn2-c2ccccn2)c1O` [Example 1-6, Ethyl 4-hydroxy-1-(2-pyridinyl)-1H-pyrazolo[3,4-b]pyridine-5-carboxylate] here?
Answer: 195 to 197 °C

Question: Which melting point does the source give for `CCOC(=O)c1nn(-c2ccccn2)c2nc3ccccc3c(Cl)c12` [Example 2-179, Ethyl 4-chloro-1-(2-pyridinyl)-1H-pyrazolo[3,4-b]quinoline-3-carboxylate] here?
Answer: 164 to 166 °C

Question: Which melting point does the source give for `CC(C)c1nn(-c2ccccn2)c2[nH]c3ccccc3c(=O)c12` [Example 2-173, 3-Isopropyl-1-(2-pyridinyl)-1,9-dihydro-4H-pyrazolo[3,4-b]quinolin-4-one] here?
Answer: 143 to 144 °C

Question: For `Cc1nn(-c2ccccn2)c2nc3ccccc3c(N3CCOCC3)c12` [Example 2-11, 3-Methyl-4-(4-morpholinyl)-1-(2-pyridinyl)-1H-pyrazolo[3,4-b]quinoline], which melting point is on record?
Answer: 203 to 205 °C

Question: Which melting point does the source give for `Cc1nn(-c2ccccn2)c2[nH]c3ccsc3c(=O)c12` [Example 2-156, 3-Methyl-1-(2-pyridinyl)-1,8-dihydro-4H-pyrazolo[3,4-b]thieno[2,3-e]pyridin-4-one] here?
Answer: 228 to 229 °C

Question: For `Cc1nn(-c2ccccn2)c2nc(Cc3ccccc3)cc(O)c12` [Example 1-21, 6-Benzyl-3-methyl-1-(2-pyridinyl)-1H-pyrazolo[3,4-b]pyridin-4-ol], which melting point is on record?
Answer: 168 to 169 °C

Question: With `Cc1nn(-c2ccccn2)c2[nH]c3cc(C(=O)O)ccc3c(=O)c12` [Example 2-68, 3-Methyl-4-oxo-1-(2-pyridinyl)-4,9-dihydro-1H-pyrazolo[3,4-b]quinoline-7-carboxylic acid] as the compound, how does the melting point read?
Answer: > 300 °C

Question: For `Cc1cccc(-n2nc(C)c3c(Cl)c4ccccc4nc32)n1` [Example 2-207, 4-Chloro-3-methyl-1-(6-methyl-2-pyridinyl)-1H-pyrazolo[3,4-b]quinoline], which melting point is on record?
Answer: 154 °C

Question: Which melting point does the source give for `COc1ccc2nc3c(c(C)nn3-c3ccccn3)c(N)c2c1` [Example 2-42, 6-Methoxy-3-methyl-1-(2-pyridinyl)-1H-pyrazolo[3,4-b]quinolin-4-ylamine] here?
Answer: 267 to 268 °C

Question: For `Cc1cccnc1-n1nc(C)c2c(N)c3cccc(C)c3nc21` [Example 2-134, 3,8-Dimethyl-1-(3-methyl-2-pyridinyl)-1H-pyrazolo[3,4-b]quinolin-4-ylamine], which melting point is on record?
Answer: 199 to 202 °C

Question: Which melting point does the source give for `Cc1nn(-c2ccccn2)c2[nH]c3ccc(Cl)cc3c(=O)c12` [Example 2-72, 6-Chloro-3-methyl-1-(2-pyridinyl)-1,9-dihydro-4H-pyrazolo[3,4-b]quinolin-4-one] here?
Answer: 254 to 255 °C

Question: For `COc1cccc(-n2nc(C)c3c(Cl)c4cccc(C)c4nc32)n1` [Example 2-126, 4-Chloro-3,8-dimethyl-1-(6-methoxy-2-pyridinyl)-1H-pyrazolo[3,4-b]quinoline], which melting point is on record?
Answer: 148 to 151 °C

Question: Which melting point does the source give for `COc1ccc2[nH]c3c(c(C)nn3-c3ccccn3)c(=O)c2c1` [Example 2-43, 6-Methoxy-3-methyl-1-(2-pyridinyl)-1,9-dihydro-4H-pyrazolo[3,4-b]quinolin-4-one] here?
Answer: 227 to 229 °C

Question: With `Cc1nn(-c2ccccn2)c2ncc(C(=O)Nc3ccccc3)c(O)c12` [Example 1-11, 4-Hydroxy-3-methyl-N-phenyl-1-(2-pyridinyl)-1H-pyrazolo[3,4-b]pyridine-5-carboxamide] as the compound, how does the melting point read?
Answer: > 300 °C

Question: Which melting point does the source give for `Cc1cccnc1-n1nc(C)c2c(=O)c3ccccc3[nH]c21` [Example 2-120, 3-Methyl-1-(3-methyl-2-pyridinyl)-1,9-dihydro-4H-pyrazolo[3,4-b]quinolin-4-one] here?
Answer: 184 to 185 °C

Question: Which melting point does the source give for `Cc1nn(-c2ccccn2)c2[nH]c3c(c(=O)c12)CCCC3` [Example 2-194, 3-Methyl-1-(2-pyridinyl)-1,5,6,7,8,9-hexahydro-4H-pyrazolo[3,4-b]quinolin-4-one] here?
Answer: 172 to 173 °C

Question: With `Cc1nn(-c2ccccn2)c2nc3cccc(F)c3c(Cl)c12` [Example 2-78, 4-Chloro-5-fluoro-3-methyl-1-(2-pyridinyl)-1H-pyrazolo[3,4-b]quinoline] as the compound, how does the melting point read?
Answer: 160 to 161 °C

Question: With `Cc1cccnc1-n1nc(C)c2c(N)c3ccccc3nc21` [Example 2-119, 3-Methyl-1-(3-methyl-2-pyridinyl)-1H-pyrazolo[3,4-b]quinolin-4-ylamine] as the compound, how does the melting point read?
Answer: 202 to 205 °C

Question: For `Cc1nn(-c2ccccn2)c2nc3ccc([N+](=O)[O-])cc3c(Cl)c12` [Example 2-53, 4-Chloro-3-methyl-6-nitro-1-(2-pyridinyl)-1H-pyrazolo[3,4-b]quinoline], which melting point is on record?
Answer: 282 °C

Question: For `CCCOc1c2cc(F)c(F)cc2nc2c1c(C)nn2-c1ccccn1` [Example 2-94, 6,7-Difluoro-3-methyl-4-propoxy-1-(2-pyridinyl)-1H-pyrazolo[3,4-b]quinoline], which melting point is on record?
Answer: 162 to 163 °C

Question: For `Cc1nn(-c2ccccn2)c2nc3ccc(C(F)(F)F)cc3c(Cl)c12` [Example 2-39, 4-Chloro-3-methyl-1-(2-pyridinyl)-6-(trifluoromethyl)-1H-pyrazolo[3,4-b]quinoline], which melting point is on record?
Answer: 206 °C

Question: Which melting point does the source give for `Clc1c2ccccc2nc2c1c(CBr)nn2-c1ccccn1` [Example 2-168, 3-Bromomethyl-4-chloro-1-(2-pyridinyl)-1H-pyrazolo[3,4-b]quinoline] here?
Answer: 203 to 205 °C

Question: With `O=C(O)Cc1nn(-c2ccccn2)c2[nH]c3ccccc3c(=O)c12` [Example 2-177, 2-[4-Oxo-1-(2-pyridinyl)-4,9-dihydro-1H-pyrazolo[3,4-b]quinolin-3-yl]acetic acid] as the compound, how does the melting point read?
Answer: 229 to 231 °C

Question: Which melting point does the source give for `Cc1nn(-c2ccccn2)c2nc3cc(F)c(F)cc3c(OC(C)C)c12` [Example 2-95, 6,7-Difluoro-4-isopropoxy-3-methyl-1-(2-pyridinyl)-1H-pyrazolo[3,4-b]quinoline] here?
Answer: 159 to 160 °C

Question: Which melting point does the source give for `Cc1nn(-c2ccccn2)c2nc3ccc(Cl)cc3c(N)c12` [Example 2-71, 6-Chloro-3-methyl-1-(2-pyridinyl)-1H-pyrazolo[3,4-b]quinolin-4-ylamine] here?
Answer: 289 to 292 °C

Question: Which melting point does the source give for `CC(C)Cc1nn(-c2ccccn2)c2[nH]c3ccccc3c(=O)c12` [Example 2-174, 3-Isobutyl-1-(2-pyridinyl)-1,9-dihydro-4H-pyrazolo[3,4-b]quinolin-4-one] here?
Answer: 167 to 169 °C

Question: For `Cc1cccc2c(N)c3c(C)nn(-c4ccccn4)c3nc12.Cl`, which melting point is on record?
Answer: 283 to 286 °C

Question: For `Cc1nn(-c2ccccn2)c2nc3ccccc3c(N)c12` [Example 1-35, 3-Methyl-1-(2-pyridinyl)-1H-pyrazolo[3,4-b]quinolin-4-ylamine], which melting point is on record?
Answer: 210 to 213 °C

Question: Which melting point does the source give for `Cc1nn(-c2ccccn2)c2[nH]c3cc(Cl)c(Cl)cc3c(=O)c12` [Example 2-76, 6,7-Dichloro-3-methyl-1-(2-pyridinyl)-1,9-dihydro-4H-pyrazolo[3,4-b]quinolin-4-one] here?
Answer: 303 to 304 °C

Question: For `Cc1cccc2nc3c(c(C)nn3-c3ccccn3)c(Cl)c12` [Example 2-29, 4-Chloro-3,5-dimethyl-1-(2-pyridinyl)-1H-pyrazolo[3,4-b]quinoline], which melting point is on record?
Answer: 167 to 169 °C

Question: Which melting point does the source give for `CCc1nn(-c2ccccn2)c2nc3cc(F)c(F)cc3c(Cl)c12` [Example 2-200, 4-Chloro-3-ethyl-6,7-difluoro-1-(2-pyridinyl)-1H-pyrazolo[3,4-b]quinoline] here?
Answer: 160 to 161 °C

Question: Which melting point does the source give for `CC(C)c1nn(-c2ccccn2)c2nc3ccccc3c(Cl)c12` [Example 2-172, 4-Chloro-3-isopropyl-1-(2-pyridinyl)-1H-pyrazolo[3,4-b]quinoline] here?
Answer: 146 to 148 °C

Question: For `Cc1nn(-c2ncccn2)c2nc3ccccc3c(N)c12` (as salt: hydrochloride) [Example 1-65, 3-Methyl-1-(2-pyrimidinyl)-1H-pyrazolo[3,4-b]quinolin-4-ylamine hydrochloride], which melting point is on record?
Answer: 287 to 290 °C

Question: Which melting point does the source give for `Cc1ccc(-n2nc(C)c3c(Cl)c4ccccc4nc32)nc1` [Example 2-115, 4-Chloro-3-methyl-1-(5-methyl-2-pyridinyl)-1H-pyrazolo[3,4-b]quinoline] here?
Answer: 197 to 200 °C

Question: For `CCc1c2ccccc2nc2c1c(C)nn2-c1ccccn1` [Example 2-102, 4-Ethyl-3-methyl-1-(2-pyridinyl)-1H-pyrazolo[3,4-b]quinoline], which melting point is on record?
Answer: 112 to 114 °C

Question: Which melting point does the source give for `Cc1nn(-c2cccnc2)c2nc3cc(F)c(F)cc3c(Cl)c12` [Example 2-202, 4-Chloro-6,7-difluoro-3-methyl-1-(3-pyridinyl)-1H-pyrazolo[3,4-b]quinoline] here?
Answer: 192 to 194 °C

Question: With `Cc1nn(-c2ccccn2)c2c1c(=O)c1ccccc1n2C` [Example 2-14, 3,9-Dimethyl-1-(2-pyridinyl)-1,9-dihydro-4H-pyrazolo[3,4-b]quinolin-4-one] as the compound, how does the melting point read?
Answer: 192 to 193 °C
